Assay results published in patent US5607919A, “Anti-microbial proteins” (Sandoz Ltd., priority 1993, dated 1997).

Assays:
[1] = system: Colletotrichum graminicola; assay: Anti-fungal activity against corn pathogens, microtiter spore assay; type: cell-based; conditions: 120 h; ni = did not inhibit fungal growth
Diplodia maydis = assay: as above; type: cell-based; conditions: 120 h; ni = did not inhibit fungal growth
Bipolaris maydis = assay: as above; type: cell-based; conditions: 120 h; ni = did not inhibit fungal growth
Procedure: (§1) The AX proteins according to the present invention are assessed for their anti-fungal activity against a number of corn pathogens. Concerning the results depicted in Tables 1 and 2, the assay of the AX proteins in respect of the corn pathogens is performed as follows. Five μl of a solution containing the proteins at the indicated concentrations are aseptically transferred into a well of a sterile, round-bottomed microtiter plate. All treatments are replicated once. Un-inoculated and inoculated culture media minus test protein solution are routinely included as controls. Spores (100-150) are aseptically added to each sample in a 5.0 μl aliquot of double strength Potato Dextrose Broth (PDB).
(§2) Following gentle agitation to mix the protein sample and spore suspension, a double layer of parafilm is wrapped around the lid/plate junction in order to minimize desiccation and the thus wrapped microtiter plate is incubated at 19°±0.2° C. with a 16 h photoperiod.
(§3) Individual wells are scored for spore germination and mycelial growth every 24 h. At the end of 120 h the level of anti-fungal activity is determined.

[2] = system: Exserohilum turcicum race 1; assay: as above; type: cell-based; conditions: 120 h; ni = did not inhibit fungal growth
Procedure: as §1, §2, §3

[3] = system: Exserohilum turcicum race 2; type: cell-based; conditions: 120 h; ni = did not inhibit fungal growth
Fusarium graminearum = type: cell-based; conditions: 120 h; ni = did not inhibit fungal growth
Fusarium moniliforme = assay: Anti-fungal activity against corn pathogens, microtiter spore assay; type: cell-based; conditions: 120 h; ni = did not inhibit fungal growth
Gibberella zeae = type: cell-based; conditions: 120 h; ni = did not inhibit fungal growth
Exserohilum turcicum = assay: Anti-fungal activity against corn pathogens, microtiter spore assay (Table 2, race not given); type: cell-based; conditions: 120 h; ni = did not inhibit fungal growth
Monilinia fructigena = assay: Mycelial growth in agar droplets coated with test protein; type: cell-based; conditions: protein concentration 20 μg/ml; 5 days; ni = did not inhibit
Cochliobolus sativus = assay: as above; type: cell-based; conditions: protein concentration 20 μg/ml; 5 days; ni = did not inhibit
[4] = system: Pseudocercosporella herpotrichoides; assay: as above; type: cell-based; conditions: 5 days
Pyricularia oryzae = type: cell-based; conditions: protein concentration 20 μg/ml; 5 days; ni = did not inhibit
Rhizoctonia solani = assay: Mycelial growth in agar droplets coated with test protein; type: cell-based; conditions: 5 days
Fusarium culmorum = assay: as above; type: cell-based; conditions: protein concentration 20 μg/ml; 5 days; ni = did not inhibit
Procedure: Concerning the results shown in Table 3, the assay of the AX and WIN N proteins in respect of the disclosed pathogens is performed as follows. Mycelium from the disclosed fungi are dispersed in a drop of molten agar which is then solidified. The solid agar droplets comprising the encapsulated mycelia are then coated with the test protein in the specified amount. Following incubation for 5 days under moist conditions the amount of mycelial growth is determined in comparison with controls, in which the agar droplets comprising the fungal roycelia are not coated with test protein. The results presented in […]

Leptosphaeria nodorum = assay: as above; type: cell-based; conditions: protein concentration 20 μg/ml; 5 days; ni = did not inhibit
Botrytis cinerea = assay: as above; type: cell-based; conditions: protein concentration 20 μg/ml; 5 days; ni = did not inhibit
C. beticola = assay: Inhibition of fungal growth in 96 well micro-titre plates at 620 nm, spores of C. beticola; type: cell-based, Cercospora beticola; conditions: for 50% growth inhibition (I50) / IC50: C. beticola, after 72 hours incubation; for IC50: conversion of the ug/ml value, read-out: 50% growth inhibition (I50); for morphology of the fungus: FIG. 4, AX2 8 μg/ml, WIN 28 μg/ml; for rate of fungal hyphal extension: compared to controls
[5] = protein concentration 20 μg/ml, ni = did not inhibit

AX1: anti-microbial protein from sugar beet leaves infected with Cercospora beticola; residues 29-74 in SEQ ID No. 2, 46 amino acids (AICKKPSKFFKGACGRDADCEKACDQENWPGGVCVPFLRCECQRSC)
Minimum inhibitory concentration [1]: 50 µg/mL | Protein concentration providing more than 50% growth inhibition [1]: 50 µg/mL | Minimum inhibitory concentration (Diplodia maydis): 11 µg/mL | Protein concentration providing more than 50% growth inhibition (Diplodia maydis): 11 µg/mL | Minimum inhibitory concentration (Bipolaris maydis): 20 µg/mL | Protein concentration providing more than 50% growth inhibition (Bipolaris maydis): 20 µg/mL | Minimum inhibitory concentration [2]: 11 µg/mL | Minimum inhibitory concentration [3]: 33 µg/mL | Minimum inhibitory concentration (Fusarium graminearum): 33 µg/mL | Protein concentration providing more than 50% growth inhibition (Fusarium graminearum): 33 µg/mL | Minimum inhibitory concentration (Fusarium moniliforme): ni | Protein concentration providing more than 50% growth inhibition (Fusarium moniliforme): ni | Minimum inhibitory concentration (Gibberella zeae): ni | Protein concentration providing more than 50% growth inhibition (Gibberella zeae): ni | Protein concentration providing more than 50% growth inhibition (Exserohilum turcicum): 33 µg/mL | Growth inhibition (Monilinia fructigena): 80% | Growth inhibition (Cochliobolus sativus): 30% | Growth inhibition ([4]; protein concentration 20 μg/ml): 30% | Growth inhibition (Pyricularia oryzae): ni | Growth inhibition (Rhizoctonia solani; [5]): ni | Growth inhibition (Fusarium culmorum): ni | Growth inhibition (Leptosphaeria nodorum): ni | Growth inhibition (Botrytis cinerea): ni

AX2: anti-microbial protein from sugar beet leaves infected with Cercospora beticola; residues 29-74 in SEQ ID No. 5, 46 amino acids (ATCRKPSMYFSGACFSDTNCQKACNREDWPNGKCLVGFKCECQRPC)
50% growth inhibition (I50) (C. beticola): 2 µg/mL | IC50 (C. beticola): ~0.5 µM | morphology of the fungus (C. beticola): markedly changed | growth in vitro of C. beticola (C. beticola; FIGS. 3A and 3B, result in words): greater than that of AX1 | rate of fungal hyphal extension (C. beticola): profoundly slow | fungicidal activity against C. beticola (C. beticola; result in words): do not appear to exhibit fungicidal activity | Minimum inhibitory concentration [1]: 50 µg/mL | Protein concentration providing more than 50% growth inhibition [1]: 50 µg/mL | Minimum inhibitory concentration (Diplodia maydis): ni | Protein concentration providing more than 50% growth inhibition (Diplodia maydis): ni | Minimum inhibitory concentration (Bipolaris maydis): 30 µg/mL | Protein concentration providing more than 50% growth inhibition (Bipolaris maydis): 33 µg/mL | Minimum inhibitory concentration [2]: 98 µg/mL | Minimum inhibitory concentration [3]: ni | Minimum inhibitory concentration (Fusarium graminearum): 33 µg/mL | Protein concentration providing more than 50% growth inhibition (Fusarium graminearum): 33 µg/mL | Minimum inhibitory concentration (Fusarium moniliforme): ni | Protein concentration providing more than 50% growth inhibition (Fusarium moniliforme): ni | Minimum inhibitory concentration (Gibberella zeae): ni | Protein concentration providing more than 50% growth inhibition (Gibberella zeae): ni | Protein concentration providing more than 50% growth inhibition (Exserohilum turcicum): ni | Growth inhibition (Monilinia fructigena): 80% | Growth inhibition (Cochliobolus sativus): 30% | Growth inhibition ([4]; protein concentration 20 μg/ml): 30% | Growth inhibition (Pyricularia oryzae): 20% | Growth inhibition (Rhizoctonia solani; protein concentration 40 μg/ml): 10% | Growth inhibition (Fusarium culmorum): 10% | Growth inhibition (Leptosphaeria nodorum): 10% | Growth inhibition (Botrytis cinerea): 10%

B1: WIN N: chitin-binding WIN protein purified from barley grain or stressed barley leaf; residues 22-146 in SEQ ID No. 11 (protein)
chain: QQANNVRATYHYYRPAQNNWDLGAPAVSAYCATWDASKPLSWRSKYGWTAFCGPAGPRGQAACGKCLRVTNPATGAQITARIVDQCANGGLDLDWDTVFTKIDTNGIGYQQGHLNVNYQFVDCRD
50% growth inhibition (I50) (C. beticola): 160 µg/mL | IC50 (C. beticola): ~11 µM | morphology of the fungus (C. beticola): markedly changed | rate of fungal hyphal extension (C. beticola): profoundly slow | fungicidal activity against C. beticola (C. beticola; result in words): do not appear to exhibit fungicidal activity | Minimum inhibitory concentration [1]: ni | Protein concentration providing more than 50% growth inhibition [1]: ni | Minimum inhibitory concentration (Diplodia maydis): 64 µg/mL | Protein concentration providing more than 50% growth inhibition (Diplodia maydis): 64 µg/mL | Minimum inhibitory concentration (Bipolaris maydis): ni | Protein concentration providing more than 50% growth inhibition (Bipolaris maydis): ni | Minimum inhibitory concentration [2]: ni | Minimum inhibitory concentration [3]: 193 µg/mL | Minimum inhibitory concentration (Fusarium graminearum): ni | Protein concentration providing more than 50% growth inhibition (Fusarium graminearum): ni | Minimum inhibitory concentration (Fusarium moniliforme): ni | Protein concentration providing more than 50% growth inhibition (Fusarium moniliforme): ni | Minimum inhibitory concentration (Gibberella zeae): ni | Protein concentration providing more than 50% growth inhibition (Gibberella zeae): ni | Protein concentration providing more than 50% growth inhibition (Exserohilum turcicum): 193 µg/mL | Growth inhibition (Monilinia fructigena): ni | Growth inhibition (Cochliobolus sativus): ni | Growth inhibition ([4]; protein concentration 40 μg/ml): 30% | Growth inhibition (Pyricularia oryzae): ni | Growth inhibition (Rhizoctonia solani; [5]): ni | Growth inhibition (Fusarium culmorum): ni | Growth inhibition (Leptosphaeria nodorum): ni | Growth inhibition (Botrytis cinerea): ni
